Key:
Conditions in all cases: 72 h
KG-1 [1] = system: KG-1
Outline: (§1)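 Seeded in RPMI 1640 at densities within the linear growth range, fifteen myeloid leukaemia cell lines were dispensed into 384-well plates with acoustically pre-printed compounds spanning five tenfold doses from 1 to 10,000 nM, in duplicate. The plates were kept for 72 h at 37 °C in 5% CO2 before luminescent ATP viability was measured and normalised to vehicle and to a positive control at 10 µM. Curves were fitted with a four-parameter log-logistic model. The IC50 was taken from those curves.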

KU-812 [2] = system: KU-812
Outline: as §1

MV4-11 [3] = system: MV4-11
Outline: as §1

THP-1 [4] = system: THP-1
Outline: as §1

MOLM-13 [5] = system: MOLM-13
Outline: as §1

NOMO-1 [6] = system: NOMO-1
Outline: as §1

HEL [7] = system: HEL
Outline: as §1

HL-60 [8] = system: HL-60
Outline: as §1

ML-2 [9] = system: ML-2
Outline: as §1

KCL-22 [10] = system: KCL-22
Outline: as §1

LAMA-84 [11] = system: LAMA-84
Outline: as §1

Mono-Mac-6 [12] = system: Mono-Mac-6
Outline: as §1

SHI-1 [13] = system: SHI-1
Outline: as §1

BV-173 [14] = system: BV-173
Outline: as §1

K-562 [15] = system: K-562
Outline: as §1

KG-1 [16] = experiment: cell viability (% survival relative to DMSO control, bortezomib = 0%); higher = less cytotoxic
Outline: (§2)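 Percent survival figures are means of duplicate wells. They were obtained by CellTiter-Glo luminescence after 10 AML and 5 CML cell lines spent 72 h at 37 °C with 5% CO2 in 384-well plates with compounds at 1, 10, 100, 1000 or 10000 nM. Vehicle was set to 100% and a 10 µM positive control to 0%.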

KU-812 [17] = experiment: as above
Outline: as §2

MV4-11 [18] = experiment: as above
Outline: as §2

THP-1 [19] = experiment: as above
Outline: as §2

MOLM-13 [20] = experiment: as above
Outline: as §2

NOMO-1 [21] = experiment: as above
Outline: as §2

HEL [22] = experiment: as above
Outline: as §2

HL-60 [23] = experiment: as above
Outline: as §2

ML-2 [24] = experiment: as above
Outline: as §2

KCL-22 [25] = experiment: as above
Outline: as §2

LAMA-84 [26] = experiment: as above
Outline: as §2

Mono-Mac-6 [27] = experiment: as above
Outline: as §2

SHI-1 [28] = experiment: as above
Outline: as §2

BV-173 [29] = experiment: as above
Outline: as §2

K-562 [30] = experiment: as above
Outline: as §2

O=C([O-])CC(O)(C(=O)[O-])C(O)C(=O)[O-].[K+].[K+].[K+] (stereo not given) [Hydroxycitrate]
Conditions | IC50 (cell viability) [µM]
BV-173 [14] | > 10
HEL [7] | > 10
HL-60 [8] | > 10
K-562 [15] | > 10
KCL-22 [10] | > 10
KG-1 [1] | > 10
KU-812 [2] | > 10
LAMA-84 [11] | > 10
ML-2 [9] | > 10
MOLM-13 [5] | > 10
MV4-11 [3] | > 10
Mono-Mac-6 [12] | > 10
NOMO-1 [6] | > 10
SHI-1 [13] | > 10
THP-1 [4] | > 10

cell viability [%]
Conditions | 1 nM | 10 nM | 100 nM | 1000 nM | 10000 nM
BV-173 [29] | 80.2 | 95.7 | 89.1 | 104 | 105
HEL [22] | 79.6 | 98.2 | 112 | 95.1 | 99.6
HL-60 [23] | 55.8 | 96.6 | 92.9 | 75.4 | 103
K-562 [30] | 81.6 | 98.8 | 102 | 110 | 108
KCL-22 [25] | 86.5 | 109 | 104 | 84.7 | 88
KG-1 [16] | 80 | 94.5 | 93.6 | 102 | 91.5
KU-812 [17] | 94.4 | 98.4 | 105 | 97.3 | 92.4
LAMA-84 [26] | 93 | 95.9 | 115 | 93.8 | 96.4
ML-2 [24] | 90.3 | 95.8 | 78.1 | 104 | 97
MOLM-13 [20] | 68.9 | 104 | 99.4 | 89.5 | 92.5
MV4-11 [18] | 81.4 | 107 | 111 | 106 | 90.2
Mono-Mac-6 [27] | 87.8 | 86.8 | 98 | 90.6 | 99.5
NOMO-1 [21] | 83.1 | 101 | 99.1 | 95.8 | 102
SHI-1 [28] | 80.8 | 112 | 92 | 100 | 88.6
THP-1 [19] | 83.8 | 93.4 | 97.5 | 97.7 | 105

CCCCCN(C)CCC(O)(P(=O)(O)O)P(=O)(O)O [Ibandronate]
Conditions | IC50 (cell viability) [µM]
BV-173 [14] | > 10
HEL [7] | > 10
HL-60 [8] | > 10
K-562 [15] | > 10
KCL-22 [10] | > 10
KG-1 [1] | > 10
KU-812 [2] | > 10
LAMA-84 [11] | > 10
ML-2 [9] | > 10
MOLM-13 [5] | > 10
MV4-11 [3] | > 10
Mono-Mac-6 [12] | > 10
NOMO-1 [6] | > 10
SHI-1 [13] | > 10
THP-1 [4] | > 10

cell viability [%]
Conditions | 1 nM | 10 nM | 100 nM | 1000 nM | 10000 nM
BV-173 [29] | 94.6 | 96 | 94.4 | 120 | 122
HEL [22] | 107 | 105 | 109 | 95.5 | 114
HL-60 [23] | 92.4 | 111 | 103 | 90.5 | 142
K-562 [30] | 113 | 92 | 81.9 | 102 | 101
KCL-22 [25] | 107 | 105 | 95.1 | 99.8 | 112
KG-1 [16] | 103 | 108 | 96.5 | 115 | 111
KU-812 [17] | 88.2 | 90.9 | 89.9 | 110 | 105
LAMA-84 [26] | 104 | 98.3 | 100 | 106 | 103
ML-2 [24] | 94 | 110 | 97.2 | 114 | 112
MOLM-13 [20] | 84.4 | 110 | 111 | 100 | 117
MV4-11 [18] | 95 | 90.5 | 104 | 86.6 | 116
Mono-Mac-6 [27] | 93.1 | 98.3 | 90 | 103 | 115
NOMO-1 [21] | 99.6 | 99.3 | 94.4 | 109 | 112
SHI-1 [28] | 108 | 108 | 103 | 98 | 107
THP-1 [19] | 94.7 | 102 | 103 | 113 | 115

Cc1cc(C(=O)NNCc2ccccc2)no1 [Isocarboxazid]
Conditions | IC50 (cell viability) [µM]
BV-173 [14] | > 10
HEL [7] | > 10
HL-60 [8] | > 10
K-562 [15] | > 10
KCL-22 [10] | > 10
KG-1 [1] | > 10
KU-812 [2] | > 10
LAMA-84 [11] | > 10
ML-2 [9] | > 10
MOLM-13 [5] | > 10
MV4-11 [3] | > 10
Mono-Mac-6 [12] | > 10
NOMO-1 [6] | > 10
SHI-1 [13] | > 10
THP-1 [4] | > 10

cell viability [%]
Conditions | 1 nM | 10 nM | 100 nM | 1000 nM | 10000 nM
BV-173 [29] | 99.1 | 101 | 100 | 117 | 80.7
HEL [22] | 112 | 87.8 | 111 | 92.6 | 103
HL-60 [23] | 107 | 90.1 | 106 | 122 | 102
K-562 [30] | 116 | 91.5 | 88.5 | 99.6 | 107
KCL-22 [25] | 105 | 91.3 | 94.3 | 98.3 | 65.6
KG-1 [16] | 96.5 | 109 | 98.5 | 108 | 91.1
KU-812 [17] | 96.2 | 99.6 | 93.8 | 93.9 | 100
LAMA-84 [26] | 98.9 | 97.9 | 99.7 | 95.5 | 95.8
ML-2 [24] | 95 | 101 | 101 | 90.4 | 85.4
MOLM-13 [20] | 104 | 96.3 | 103 | 106 | 96.6
MV4-11 [18] | 107 | 95 | 97.5 | 81.4 | 80.4
Mono-Mac-6 [27] | 94.1 | 102 | 104 | 107 | 80.8
NOMO-1 [21] | 105 | 103 | 109 | 112 | 92
SHI-1 [28] | 101 | 99.9 | 98.4 | 99.1 | 95.2
THP-1 [19] | 97.8 | 102 | 110 | 97.4 | 86.7
